In US20080039422A1, “Vitamin B12-Containing Compositions and Methods of Use” (Transition Therapeutics Inc., priority 2004, published 2008):

Assay: Hydroxocobalamin-containing solutions
Format: physicochemical
Method: A variety of solutions containing hydroxocobalamin (HO-Cbl) were tested. The excipients tested in these studies were the same as those used above: (a) 15% ethanol; (b) 20% ethanol; (c) 20% propylene glycol; (d) 40% propylene glycol; (e) 15% ethanol and 20% propylene glycol; and (f) 20% ethanol and 40% propylene glycol. Here, however, three challenge amounts were tested (˜16, 40, and 81 mg/ml HO-Cbl) and the time course was slightly longer, with measurements being made on Day 3 and Day 5. The OH-Cbl was solubilized at room temperature, as it dissolved readily in the excipients tested. If necessary or desired, the solutions can be mixed by shaking briefly (using, for example, a vortex or other agitation for a few seconds (e.g., 5-20 seconds) to a minute or so (e.g., 1-3 minutes). Following suitable dilution, the absorbance at […] was measured.

SMILES: C/C1=C2/[N-][C@H]([C@H](CC(N)=O)[C@@]2(C)CCC(=O)NC[C@@H](C)OP(=O)([O-])O[C@H]2[C@@H](O)[C@@H](n3cnc4cc(C)c(C)cc43)O[C@@H]2CO)[C@]2(C)N=C(/C(C)=C3N=C(/C=C4N=C1[C@@H](CCC(N)=O)C\4(C)C)[C@@H](CCC(N)=O)[C@]\3(C)CC(N)=O)[C@@H](CCC(N)=O)[C@]2(C)CC(N)=O.[Co+3].[OH-] [OH-Cbl, hydroxocobalamin]
- concentrations of HO-Cbl versus control (water) values (any of the solutions tested, any of the three challenge amounts): did not substantially exceed control values
- Conc of OH-Cbl (challenge 16.18 mg/mL, ethanol 0%, PG 0%, Day 0): 0 µg/mL
- Conc of OH-Cbl (challenge 16.18 mg/mL, ethanol 0%, PG 0%, Day 3): 16830 µg/mL
- Conc of OH-Cbl (challenge 16.18 mg/mL, ethanol 0%, PG 0%, Day 5): 16930 µg/mL
- Conc of OH-Cbl (challenge 16.18 mg/mL, ethanol 0%, PG 20%, Day 0): 0 µg/mL
- Conc of OH-Cbl (challenge 16.18 mg/mL, ethanol 0%, PG 20%, Day 3): 17100 µg/mL
- Conc of OH-Cbl (challenge 16.18 mg/mL, ethanol 0%, PG 20%, Day 5): 17310 µg/mL
- Conc of OH-Cbl (challenge 16.18 mg/mL, ethanol 0%, PG 40%, Day 0): 0 µg/mL
- Conc of OH-Cbl (challenge 16.18 mg/mL, ethanol 0%, PG 40%, Day 3): 16780 µg/mL
- Conc of OH-Cbl (challenge 16.18 mg/mL, ethanol 0%, PG 40%, Day 5): 17100 µg/mL
- Conc of OH-Cbl (challenge 16.18 mg/mL, ethanol 15%, PG 0%, Day 0): 0 µg/mL
- Conc of OH-Cbl (challenge 16.18 mg/mL, ethanol 15%, PG 0%, Day 3): 16670 µg/mL
- Conc of OH-Cbl (challenge 16.18 mg/mL, ethanol 15%, PG 0%, Day 5): 17060 µg/mL
- Conc of OH-Cbl (challenge 16.18 mg/mL, ethanol 15%, PG 20%, Day 0): 0 µg/mL
- Conc of OH-Cbl (challenge 16.18 mg/mL, ethanol 15%, PG 20%, Day 3): 16940 µg/mL
- Conc of OH-Cbl (challenge 16.18 mg/mL, ethanol 15%, PG 20%, Day 5): 17440 µg/mL
- Conc of OH-Cbl (challenge 16.18 mg/mL, ethanol 20%, PG 0%, Day 0): 0 µg/mL
- Conc of OH-Cbl (challenge 16.18 mg/mL, ethanol 20%, PG 0%, Day 3): 17050 µg/mL
- Conc of OH-Cbl (challenge 16.18 mg/mL, ethanol 20%, PG 0%, Day 5): 17140 µg/mL
- Conc of OH-Cbl (challenge 16.18 mg/mL, ethanol 20%, PG 40%, Day 0): 0 µg/mL
- Conc of OH-Cbl (challenge 16.18 mg/mL, ethanol 20%, PG 40%, Day 3): 16250 µg/mL
- Conc of OH-Cbl (challenge 16.18 mg/mL, ethanol 20%, PG 40%, Day 5): 16590 µg/mL
- Conc of OH-Cbl (challenge 40.45 mg/mL, ethanol 0%, PG 0%, Day 0): 0 µg/mL
- Conc of OH-Cbl (challenge 40.45 mg/mL, ethanol 0%, PG 0%, Day 3): 41900 µg/mL
- Conc of OH-Cbl (challenge 40.45 mg/mL, ethanol 0%, PG 0%, Day 5): 41680 µg/mL
- Conc of OH-Cbl (challenge 40.45 mg/mL, ethanol 0%, PG 20%, Day 0): 0 µg/mL
- Conc of OH-Cbl (challenge 40.45 mg/mL, ethanol 0%, PG 20%, Day 3): 41680 µg/mL
- Conc of OH-Cbl (challenge 40.45 mg/mL, ethanol 0%, PG 20%, Day 5): 41470 µg/mL
- Conc of OH-Cbl (challenge 40.45 mg/mL, ethanol 0%, PG 40%, Day 0): 0 µg/mL
- Conc of OH-Cbl (challenge 40.45 mg/mL, ethanol 0%, PG 40%, Day 3): 41790 µg/mL
- Conc of OH-Cbl (challenge 40.45 mg/mL, ethanol 0%, PG 40%, Day 5): 41790 µg/mL
- Conc of OH-Cbl (challenge 40.45 mg/mL, ethanol 15%, PG 0%, Day 0): 0 µg/mL
- Conc of OH-Cbl (challenge 40.45 mg/mL, ethanol 15%, PG 0%, Day 3): 41150 µg/mL
- Conc of OH-Cbl (challenge 40.45 mg/mL, ethanol 15%, PG 0%, Day 5): 41470 µg/mL
- Conc of OH-Cbl (challenge 40.45 mg/mL, ethanol 15%, PG 20%, Day 0): 0 µg/mL
- Conc of OH-Cbl (challenge 40.45 mg/mL, ethanol 15%, PG 20%, Day 3): 41040 µg/mL
- Conc of OH-Cbl (challenge 40.45 mg/mL, ethanol 15%, PG 20%, Day 5): 42220 µg/mL
- Conc of OH-Cbl (challenge 40.45 mg/mL, ethanol 20%, PG 0%, Day 0): 0 µg/mL
- Conc of OH-Cbl (challenge 40.45 mg/mL, ethanol 20%, PG 0%, Day 3): 41580 µg/mL
- Conc of OH-Cbl (challenge 40.45 mg/mL, ethanol 20%, PG 0%, Day 5): 41040 µg/mL
- Conc of OH-Cbl (challenge 40.45 mg/mL, ethanol 20%, PG 40%, Day 0): 0 µg/mL
- Conc of OH-Cbl (challenge 40.45 mg/mL, ethanol 20%, PG 40%, Day 3): 41360 µg/mL
- Conc of OH-Cbl (challenge 40.45 mg/mL, ethanol 20%, PG 40%, Day 5): 41580 µg/mL
- Conc of OH-Cbl (challenge 80.90 mg/mL, ethanol 0%, PG 0%, Day 0): 0 µg/mL
- Conc of OH-Cbl (challenge 80.90 mg/mL, ethanol 0%, PG 0%, Day 3): 81020 µg/mL
- Conc of OH-Cbl (challenge 80.90 mg/mL, ethanol 0%, PG 0%, Day 5): 80800 µg/mL
- Conc of OH-Cbl (challenge 80.90 mg/mL, ethanol 0%, PG 20%, Day 0): 0 µg/mL
- Conc of OH-Cbl (challenge 80.90 mg/mL, ethanol 0%, PG 20%, Day 3): 83800 µg/mL
- Conc of OH-Cbl (challenge 80.90 mg/mL, ethanol 0%, PG 20%, Day 5): 82090 µg/mL
- Conc of OH-Cbl (challenge 80.90 mg/mL, ethanol 0%, PG 40%, Day 0): 0 µg/mL
- Conc of OH-Cbl (challenge 80.90 mg/mL, ethanol 0%, PG 40%, Day 3): 81870 µg/mL
- Conc of OH-Cbl (challenge 80.90 mg/mL, ethanol 0%, PG 40%, Day 5): 82730 µg/mL
- Conc of OH-Cbl (challenge 80.90 mg/mL, ethanol 15%, PG 0%, Day 0): 0 µg/mL
- Conc of OH-Cbl (challenge 80.90 mg/mL, ethanol 15%, PG 0%, Day 3): 82730 µg/mL
- Conc of OH-Cbl (challenge 80.90 mg/mL, ethanol 15%, PG 0%, Day 5): 82940 µg/mL
- Conc of OH-Cbl (challenge 80.90 mg/mL, ethanol 15%, PG 20%, Day 0): 0 µg/mL
- Conc of OH-Cbl (challenge 80.90 mg/mL, ethanol 15%, PG 20%, Day 3): 81230 µg/mL
- Conc of OH-Cbl (challenge 80.90 mg/mL, ethanol 15%, PG 20%, Day 5): 80160 µg/mL
- Conc of OH-Cbl (challenge 80.90 mg/mL, ethanol 20%, PG 0%, Day 0): 0 µg/mL
- Conc of OH-Cbl (challenge 80.90 mg/mL, ethanol 20%, PG 0%, Day 3): 82090 µg/mL
- Conc of OH-Cbl (challenge 80.90 mg/mL, ethanol 20%, PG 0%, Day 5): 80590 µg/mL
- Conc of OH-Cbl (challenge 80.90 mg/mL, ethanol 20%, PG 40%, Day 0): 0 µg/mL
- Conc of OH-Cbl (challenge 80.90 mg/mL, ethanol 20%, PG 40%, Day 3): 82940 µg/mL
- Conc of OH-Cbl (challenge 80.90 mg/mL, ethanol 20%, PG 40%, Day 5): 82730 µg/mL
